Earlier results on 1 molecule are cited in US20060120971A1, “Agents and methods for administration to the central nervous system” (SIGNUM PHARMACEUTICALS, INC., priority 2004, published 2006).

The target in this series is T1, carnitine palmitoyltransferase-1 (CPT1) (Rattus norvegicus, UniProt P32198).
T1 construct: decrease levels of CPT1 activity and increase the levels of LC-CoAs in the hypothalamus of healthy rats; host or cells: endogenous enzyme in brain/hypothalamus of conscious Sprague-Dawley rats (in vivo, ICV infusion)
T1 sequence (P32198 1-773): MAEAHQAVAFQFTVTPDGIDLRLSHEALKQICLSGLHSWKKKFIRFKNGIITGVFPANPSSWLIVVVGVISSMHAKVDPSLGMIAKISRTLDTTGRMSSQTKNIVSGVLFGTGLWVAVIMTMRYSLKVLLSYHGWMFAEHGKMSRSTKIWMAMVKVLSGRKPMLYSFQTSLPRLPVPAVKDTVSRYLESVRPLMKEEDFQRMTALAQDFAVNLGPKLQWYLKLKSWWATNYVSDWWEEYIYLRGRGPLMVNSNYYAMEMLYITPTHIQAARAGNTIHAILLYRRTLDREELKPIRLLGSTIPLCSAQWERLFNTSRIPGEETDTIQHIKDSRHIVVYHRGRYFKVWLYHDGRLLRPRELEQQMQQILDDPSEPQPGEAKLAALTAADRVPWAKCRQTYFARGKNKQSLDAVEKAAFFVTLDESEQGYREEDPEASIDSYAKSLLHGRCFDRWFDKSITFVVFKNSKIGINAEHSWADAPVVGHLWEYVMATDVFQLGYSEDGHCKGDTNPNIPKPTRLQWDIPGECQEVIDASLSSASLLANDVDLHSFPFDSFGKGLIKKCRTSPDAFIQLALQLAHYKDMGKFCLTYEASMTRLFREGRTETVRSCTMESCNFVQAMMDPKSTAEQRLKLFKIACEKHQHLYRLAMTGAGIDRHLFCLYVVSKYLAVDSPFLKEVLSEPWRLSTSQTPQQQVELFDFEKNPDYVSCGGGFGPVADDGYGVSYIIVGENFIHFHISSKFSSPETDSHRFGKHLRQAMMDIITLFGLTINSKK

Where [1] appears, read: healthy conscious Sprague-Dawley rats, continuous ICV infusion into third cerebral ventricle.

On to `CCCCCCCCCCCCCCNC(=O)N[C@H](CC(=O)[O-])C[N+](C)(C)C` [ST1326, R-4-trimethylammonium-3-(tetradecylcarbamoyl)-aminobutyrate], for which, under “brain of healthy rats, ICV infusion”, the CPT1 activity entry is on record as “effectively decreasing”. Also, under setting [1], the endogenous glucose production entry is given as “reduced” and the food intake result is “diminished”. Where the note is “hypothalamus of healthy rats, ICV infusion”, the “hypothalamic concentrations of LC-CoA” value was “substantially increasing”.
